Reference: patent US11779592B2, “Inhibition of NGLY1 for the treatment of cancer” (University of North Texas Health Science Center, priority 2017, dated 2023)
Residues, ends and D or L forms follow the SMILES beside them. *: point of attachment. Cbz = O=C(OCc1ccccc1)*; CH2F = FC*

Tests used:
human NGLY1 = target: T1, human NGLY1 (Homo sapiens, UniProt Q96IV0); test: RNase B deglycosylation assay with recombinant human NGLY1; assay type: biochemical
T1 construct: host or cells: HEK293T
T1 sequence (Q96IV0 1-654): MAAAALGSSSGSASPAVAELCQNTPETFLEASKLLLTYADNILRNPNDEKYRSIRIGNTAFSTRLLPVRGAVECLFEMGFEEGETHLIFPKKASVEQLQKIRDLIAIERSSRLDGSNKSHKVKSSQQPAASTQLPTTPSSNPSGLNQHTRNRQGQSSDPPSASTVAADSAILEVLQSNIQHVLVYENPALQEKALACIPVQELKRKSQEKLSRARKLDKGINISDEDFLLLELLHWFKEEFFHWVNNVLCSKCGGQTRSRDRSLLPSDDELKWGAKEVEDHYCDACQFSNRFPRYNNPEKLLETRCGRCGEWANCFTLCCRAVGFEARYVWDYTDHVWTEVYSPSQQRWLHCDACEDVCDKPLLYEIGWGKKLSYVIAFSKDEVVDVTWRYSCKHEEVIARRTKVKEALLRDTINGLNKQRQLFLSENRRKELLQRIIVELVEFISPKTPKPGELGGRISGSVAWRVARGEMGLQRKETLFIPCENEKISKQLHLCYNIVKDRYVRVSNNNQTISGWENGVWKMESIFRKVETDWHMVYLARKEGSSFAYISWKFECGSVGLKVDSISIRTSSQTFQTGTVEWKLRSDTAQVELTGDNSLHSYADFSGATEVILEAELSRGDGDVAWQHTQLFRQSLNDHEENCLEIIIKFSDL
From the text: The computational homology model of human NGLY1 core domain was generated and used for studying interactions between NGLY1 and novel small molecules that are designed to covalently modified and inactivate the catalytic site of NGLY1. (FIG. 15A) The most favorable binding pose of Z-VAD-fmk, a short peptide with NGLY1 and caspase inhibitory activity, in the human NGLY1 homology model superimposed to the conformation of Z-VAD-fmk bound to mouse NGLY1 in a co-crystalized structure. […] RNase B (g): glycosylated RNase B. RNase B (dg): deglycosylated RNase B. Veh: vehicle (DMSO) treatment. M: molecular weight marker. Lower panel: the deglycosylation of NFE2L1 altered by the treatment of 20 μM Z-VAD-fmk and 200 μM NM-350 in bortezomib-treated HEK293T cells. The cells were pretreated with vehicle (DMSO), Z-VAD-fmk and NM-350 for 24 hours and subsequently subjected to concomitant treatment with 10 μM bortezomib for an additional 16 hours. Cell lysates reacted with and without 500 units of PNGase F for 2 hours were analyzed using Western blotting. Top arrowhead in lanes 2 and 3: fully glycosylated NFE2L1. Top arrowhead in lane 1: partially glycosylated NFE2L1. Bottom arrowhead: deglycosylated and truncated NFE2L1. […] The cell viability curve of combinatorial treatment was plotted according to the doses of dacarbazine used in the treatment. […] The cell viability curve of combinatorial treatment was plotted according to the doses of bortezomib used in the treatment. All the data of cell viability tests were presented as mean±standard deviation (n=3).
FLAG-tagged human NGLY1 was overexpressed by the transduction of the pLenti expression vector that carries a Myc-DDK-tagged-human NGLY1 open reading frame in HEK293T cells. Anti-FLAG magnetic beads (OriGene Technologies, Rockville, MD) were used to react with the lysate of HEK293T cells overnight at 4° C. in the presence of pan-protease inhibitors to purify the FLAG-tagged NGLY1. The magnetic beads were thoroughly washed using 0.5% Tween 20 in PBS for three times to minimize non-specific binding. The enrichment of recombinant human NGLY1 was checked by Western blotting of NGLY1 in the pull-down fraction. To perform RNase B deglycosylation assays, purified human NGLY1 on an equal volume of magnetic beads was incubated with PBS containing each of the indicated small molecules and control vehicle (DMSO) at 37° C. for 2 hours. The magnetic beads were then collected and resuspended in PBS containing 0.05% NP-40. Each magnetic bead suspension was mixed with 1 ug RNase B (Millipore Sigma, St. Louis, MO) that was pre-denatured using 5 mM DTT in the presence of 8M urea at 42° C. for 1 hour followed by the treatment of 25 mM iodoacetamide at room temperature for 1 hour and buffer exchange into PBS using Zeba 7K MWCO spin columns (Thermo Fisher Scientific, Carlsbad, CA). The mixtures of magnetic bead suspension and denatured RNase B were left at 37° C. for 16 hours. The proteins in each mixture were resolved by SDS-PAGE and visualized using SYPRO Ruby gel stain (Thermo Fisher Scientific, Carlsbad, CA).

NFE2L1 = test: Deglycosylation of NFE2L1 in bortezomib-treated HEK293T cells (Western blotting); assay type: cell-based; settings: 24 hours pretreatment then 10 μM bortezomib 16 hours
From the text: The computational homology model of human NGLY1 core domain was generated and used for studying interactions between NGLY1 and novel small molecules that are designed to covalently modified and inactivate the catalytic site of NGLY1. (FIG. 15A) The most favorable binding pose of Z-VAD-fmk, a short peptide with NGLY1 and caspase inhibitory activity, in the human NGLY1 homology model superimposed to the conformation of Z-VAD-fmk bound to mouse NGLY1 in a co-crystalized structure. […] RNase B (g): glycosylated RNase B. RNase B (dg): deglycosylated RNase B. Veh: vehicle (DMSO) treatment. M: molecular weight marker. Lower panel: the deglycosylation of NFE2L1 altered by the treatment of 20 μM Z-VAD-fmk and 200 μM NM-350 in bortezomib-treated HEK293T cells. The cells were pretreated with vehicle (DMSO), Z-VAD-fmk and NM-350 for 24 hours and subsequently subjected to concomitant treatment with 10 μM bortezomib for an additional 16 hours. Cell lysates reacted with and without 500 units of PNGase F for 2 hours were analyzed using Western blotting. Top arrowhead in lanes 2 and 3: fully glycosylated NFE2L1. Top arrowhead in lane 1: partially glycosylated NFE2L1. Bottom arrowhead: deglycosylated and truncated NFE2L1. […] The cell viability curve of combinatorial treatment was plotted according to the doses of dacarbazine used in the treatment. […]

SK-MEL-2 cells = test: Cell viability test (MTT) in SK-MEL-2 cells; assay type: cell-based, human
Method: (§1) Despite the frequent failure of chemotherapy in patients with melanoma, chemotherapy remains a frontline approach for treatment, especially in many patients who cannot afford immunotherapy or targeted therapy. […] Identifying novel approaches to enhance the efficacy of chemotherapy and targeted therapy agents in melanoma will greatly benefit many cancer patients. […] The IC50 of each drug treatment in each cell clone was calculated using CalcuSyn 2.0.
(§2) The dose effect of dox-induced expression of NGLY1 shRNA in each cell clone was also determined. The IC50 of each drug treatment in each cell clone was calculated using CalcuSyn 2.0. To determine the interaction between NGLY1 knockdown and each anticancer agent, cells were exposed to four-dose combinations of dox and an anticancer agent at a fixed dose ratio. The combination index (CI) value was calculated using CalcuSyn 2.0. CI values of less than 1 are considered a synergistic interaction. […]
(§3) Cells were seeded into 96-well plates (2,500-5,000 cells/well, depending on cell types), incubated overnight, and treated as indicated. […] Reduced MTT was solubilized in DMSO for determination of absorbance at 570 nm. Absorbance of reduced MTS was directly measured in the reaction medium at 490 nm. The relative cell viability in each treatment condition was calculated based on absorbance values.

MALME3M cells = assay type: cell-based; settings: 20 μM, 72-hour treatment
Method: as §1, §2, §3

UACC257 cells = test: Cell viability test (MTT) in UACC257 cells; assay type: cell-based, human; settings: 20 μM, 72-hour treatment
Method: as §1, §2, §3

NGLY1 = NGLY1 expression in stable clones of melanoma cells (immunoblotting); assay type: cell-based, human; settings: stable clones of MALME3M, UACC257 and SK-MEL-2 cells, 48-hour treatment of dox
From the text: These NGLY1-targeting shRNA sequences and a scrambled (non-targeting) shRNA sequence were cloned into doxycycline (dox)-inducible, polycistronic green fluorescence protein (GFP)-shRNA expression constructs (a pZIP inducible lentiviral vector, TransOMIC). Stable clones have been generated with the shRNA expression constructs in multiple human melanoma cell lines, including MALME3M, UACC257, SK-MEL-2, and COLO829 melanoma cells. […] Similar knockdown effects were found in the stable clones of other melanoma cells with this particular NGLY1 shRNA sequence. […] Similar to human normal fibroblasts, normal melanocytes (FIG. 5D) and keratinocytes appeared to well tolerate NGLY1 knockdown and show no sign of increased cell death. In addition, SK-MEL-2, MALME3M cells that express inducible NGLY1 shRNA presented significant apoptosis, compared to their scrambled RNA-expressing counterparts. The expression of exogenous human NGLY1 in melanoma cells attenuated NGLY1-targeting shRNA-induced apoptosis (FIG. 5E).
The knockdown of NGLY1 expression in melanoma cells was achieved by the transduction of pZIP-TRE3GS lentiviral expression vectors that carry two independent shRNA sequences (Below; TransOMIC Technologies, Huntsville, AL). […] The expression of the shRNA sequences and an open reading frame of the ZsGreen reporter is driven by the TRE3GS doxycycline-inducible promoter. […]

HepG2 liver cancer cells = test: Cell morphology of HepG2 cells with NGLY1 knockdown; assay type: cell-based
[1] = tested on: U-251MG glioblastoma cells; test: Cell morphology of U-251MG cells with NGLY1 knockdown; assay type: cell-based
[2] = 2-hour reaction with human NGLY1

Molecule: CCCNC(=O)[C@H](CC(=O)N[C@@H]1O[C@H](COC(C)=O)[C@@H](OC(C)=O)[C@H](OC(C)=O)[C@H]1NC(C)=O)NC(=O)/C=C/CN(C)C [NM-354, (2R,3S,4R,5R,6R)-5-Acetamido-2-(acetoxymethyl)-6-((S)-3-((E)-4-(dimethylamino)but-2-enamido)-4-oxo-4-(propylamino)butanamido)tetrahydro-2H-pyran-3,4-diyl diacetate]
- NGLY1 activity in the deglycosylation of denatured RNase B (human NGLY1; [2]): suppressed its activity

Molecule: CCCNC(=O)[C@H](CC(=O)N[C@@H]1O[C@H](COC(C)=O)[C@@H](OC(C)=O)[C@H](OC(C)=O)[C@H]1NC(C)=O)NC(=O)CCl [NM-350, (2R,3S,4R,5R,6R)-5-Acetamido-2-(acetoxymethyl)-6-((S)-3-(2-chloroacetamido)-4-oxo-4-(propylamino)butanamido)tetrahydro-2H-pyran-3,4-diyl diacetate]
- NGLY1 activity in the deglycosylation of denatured RNase B (human NGLY1; [2]): suppressed its activity
- deglycosylation of NFE2L1 (NFE2L1; 200 μM): clear retention of N-glycans on NFE2L1
- suppression of cell viability in combination (SK-MEL-2 cells; in combination with bortezomib): synergistically suppressed the viability

Molecule: C=CS(=O)(=O)N[C@@H](CC(=O)N[C@@H]1O[C@H](COC(C)=O)[C@@H](OC(C)=O)[C@H](OC(C)=O)[C@H]1NC(C)=O)C(=O)NCCC [NM-348, (2R,3S,4R,5R,6R)-5-Acetamido-2-(acetoxymethyl)-6-((S)-4-oxo-4-(propylamino)-3-(vinylsulfonamido)butanamido)tetrahydro-2H-pyran-3,4-diyl diacetate]
- NGLY1 activity in the deglycosylation of denatured RNase B (human NGLY1; [2]): suppressed its activity

Molecule: Cc1ccc(S(=O)(=O)/C=C/C(=O)N[C@@H](CCc2ccccc2)C(=O)NCCC(C)C)cc1 [WRR139, reference compound]
- NGLY1 activity in the deglycosylation of denatured RNase B (human NGLY1; 2-hour reaction, 5 μM): suppressed its activity

Molecule: C=CC(=O)N[C@@H](CC(=O)N[C@@H]1O[C@H](COC(C)=O)[C@@H](OC(C)=O)[C@H](OC(C)=O)[C@H]1NC(C)=O)C(=O)NCCC [NM-322, (2R,3S,4R,5R,6R)-5-acetamido-2-(acetoxymethyl)-6-((S)-3-acrylamido-4-oxo-4-(propylamino)butanamido)tetrahydro-2H-pyran-3,4-diyl diacetate]
- NGLY1 activity in the deglycosylation of denatured RNase B (human NGLY1; [2]): suppressed its activity
- suppression of cell viability in combination (SK-MEL-2 cells; in combination with dacarbazine): synergistic effect

Molecule: N.N.[Cl][Pt][Cl] [cisplatin]
- growth and cell death (MALME3M cells): moderate growth inhibition without increase of cell death
- growth and cell death (UACC257 cells): moderate growth inhibition without increase of cell death

Molecule: COC(=O)C[C@H](NC(=O)[C@H](C)NC(=O)[C@@H](NC(=O)OCc1ccccc1)C(C)C)C(=O)CF [Z-VAD-fmk, reference compound] (Cbz-Val-Ala-Asp(OMe)-CH2F)
- NGLY1 activity in the deglycosylation of denatured RNase B (human NGLY1; 2-hour reaction, 20 μM): suppressed its activity
- deglycosylation of NFE2L1 (NFE2L1; 20 μM): altered

B1: NGLY1-shRNA647: NGLY1-targeting shRNA sequence (SEQ ID NO: 6), dox-inducible lentiviral vector (nucleic acid)
DNA: AAAGCAUUACUUCGAGACACUAUAGUGAAGCCACAGAUGUAUAGUGUCUCGAAGUAAUGCUUCU
- expression of NGLY1 (NGLY1): largely suppressed
- cell morphology (HepG2 liver cancer cells): morphology of apoptosis
- cell morphology [1]: morphology of apoptosis
